# From the supplement of paper PMC10733146
# Legend:
# Assay in all cases: viability relative to DMSO control (fraction); higher = less drug effect (more viable cells)
# Conditions in all cases: 48 h
# [1] = tested on: primary ALL patient cells (S048)
# Procedure, shortened: (§1)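 Compounds were pre-plated at five concentrations, one well each, in 384-well plates, and primary mononuclear tumour cells were plated on them at 4 × 10^4 cells per well. The cells, fresh or cryopreserved, had been Ficoll-isolated from blood or bone marrow or taken from processed lymph node. After 48 h at 37 °C and 5% CO2 in RPMI-1640 with penicillin/streptomycin, L-glutamine and human serum, viability was read as CellTiter-Glo luminescence relative to the median of 16 inner DMSO wells.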
# [2] = tested on: primary ALL patient cells (S088)
# Procedure, shortened: as §1
# [3] = tested on: primary AML patient cells (S006)
# Procedure, shortened: as §1
# [4] = tested on: primary AML patient cells (S007)
# Procedure, shortened: as §1
# [5] = tested on: primary AML patient cells (S011)
# Procedure, shortened: as §1
# [6] = tested on: primary AML patient cells (S012)
# Procedure, shortened: as §1
# [7] = tested on: primary AML patient cells (S019)
# Procedure, shortened: as §1
# [8] = tested on: primary AML patient cells (S056)
# Procedure, shortened: as §1
# [9] = tested on: primary AML patient cells (S079)
# Procedure, shortened: as §1
# [10] = tested on: primary AML patient cells (S085)
# Procedure, shortened: as §1
# [11] = tested on: primary CLL patient cells (S031)
# Procedure, shortened: as §1
# [12] = tested on: primary DLBCL patient cells (S049)
# Procedure, shortened: as §1
# [13] = tested on: primary DLBCL patient cells (S076)
# Procedure, shortened: as §1
# [14] = tested on: primary FL patient cells (S022)
# Procedure, shortened: as §1
# [15] = tested on: primary FL patient cells (S087)
# Procedure, shortened: as §1
# [16] = tested on: primary MCL patient cells (S041)
# Procedure, shortened: as §1
# [17] = tested on: primary MCL patient cells (S063)
# Procedure, shortened: as §1
# [18] = tested on: primary T-NHL patient cells (S058)
# Procedure, shortened: as §1
compound,measurement,setting,value
Cc1cc(Nc2ncc(Cl)c(Nc3ccccc3S(=O)(=O)C(C)C)n2)c(OC(C)C)cc1C1CCNCC1 [Ceritinib],viability,[1]; 0.024 µM,0.855
same,viability,[1]; 0.12 µM,0.83
same,viability,[1]; 0.6 µM,0.634
same,viability,[1]; 3 µM,0.505
same,viability,[1]; 15 µM,0.0153
same,viability,[2]; 0.024 µM,0.923
same,viability,[2]; 0.12 µM,0.788
same,viability,[2]; 0.6 µM,0.558
same,viability,[2]; 3 µM,0.35
same,viability,[2]; 15 µM,0.0155
same,viability,[3]; 0.024 µM,0.938
same,viability,[3]; 0.12 µM,0.924
same,viability,[3]; 0.6 µM,0.773
same,viability,[3]; 3 µM,0.53
same,viability,[3]; 15 µM,0.0233
same,viability,[4]; 0.024 µM,0.837
same,viability,[4]; 0.12 µM,0.718
same,viability,[4]; 0.6 µM,0.559
same,viability,[4]; 3 µM,0.173
same,viability,[4]; 15 µM,0.0192
same,viability,[5]; 0.024 µM,0.846
same,viability,[5]; 0.12 µM,0.942
same,viability,[5]; 0.6 µM,0.631
same,viability,[5]; 3 µM,0.182
same,viability,[5]; 15 µM,0.0175
same,viability,[6]; 0.024 µM,1.05
same,viability,[6]; 0.12 µM,1.03
same,viability,[6]; 0.6 µM,1.06
same,viability,[6]; 3 µM,1.01
same,viability,[6]; 15 µM,0.0296
same,viability,[7]; 0.024 µM,1.08
same,viability,[7]; 0.12 µM,1
same,viability,[7]; 0.6 µM,1.03
same,viability,[7]; 3 µM,0.773
same,viability,[7]; 15 µM,0.0262
same,viability,[8]; 0.024 µM,0.954
same,viability,[8]; 0.12 µM,1.41
same,viability,[8]; 0.6 µM,0.654
same,viability,[8]; 3 µM,0.375
same,viability,[8]; 15 µM,0.0154
same,viability,[9]; 0.024 µM,0.964
same,viability,[9]; 0.12 µM,0.933
same,viability,[9]; 0.6 µM,0.844
same,viability,[9]; 3 µM,0.738
same,viability,[9]; 15 µM,0.0169
same,viability,[10]; 0.024 µM,1.02
same,viability,[10]; 0.12 µM,0.875
same,viability,[10]; 0.6 µM,0.62
same,viability,[10]; 3 µM,0.49
same,viability,[10]; 15 µM,0.0171
same,viability,[11]; 0.024 µM,1
same,viability,[11]; 0.12 µM,0.899
same,viability,[11]; 0.6 µM,0.838
same,viability,[11]; 3 µM,0.628
same,viability,[11]; 15 µM,0.018
same,viability,[12]; 0.024 µM,0.897
same,viability,[12]; 0.12 µM,0.84
same,viability,[12]; 0.6 µM,0.771
same,viability,[12]; 3 µM,0.4
same,viability,[12]; 15 µM,0.0197
same,viability,[13]; 0.024 µM,1.02
same,viability,[13]; 0.12 µM,0.996
same,viability,[13]; 0.6 µM,0.964
same,viability,[13]; 3 µM,0.721
same,viability,[13]; 15 µM,0.0181
same,viability,[14]; 0.024 µM,1.01
same,viability,[14]; 0.12 µM,0.948
same,viability,[14]; 0.6 µM,0.846
same,viability,[14]; 3 µM,0.555
same,viability,[14]; 15 µM,0.0165
same,viability,[15]; 0.024 µM,0.968
same,viability,[15]; 0.12 µM,0.981
same,viability,[15]; 0.6 µM,0.883
same,viability,[15]; 3 µM,0.734
same,viability,[15]; 15 µM,0.0188
same,viability,[16]; 0.024 µM,0.966
same,viability,[16]; 0.12 µM,0.966
same,viability,[16]; 0.6 µM,0.9
same,viability,[16]; 3 µM,0.654
same,viability,[16]; 15 µM,0.0173
same,viability,[17]; 0.024 µM,0.967
same,viability,[17]; 0.12 µM,0.946
same,viability,[17]; 0.6 µM,0.957
same,viability,[17]; 3 µM,0.892
same,viability,[17]; 15 µM,0.0187
same,viability,[18]; 0.024 µM,1.03
same,viability,[18]; 0.12 µM,0.924
same,viability,[18]; 0.6 µM,0.961
same,viability,[18]; 3 µM,0.626
same,viability,[18]; 15 µM,0.023
CC#CC(=O)N1CCC[C@H]1c1nc(-c2ccc(C(=O)Nc3ccccn3)cc2)c2c(N)nccn12 [Acalabrutinib (ACP-196)],viability,[1]; 0.008 µM,1.05
same,viability,[1]; 0.04 µM,0.955
same,viability,[1]; 0.2 µM,0.975
same,viability,[1]; 1 µM,0.962
same,viability,[1]; 5 µM,1.03
same,viability,[2]; 0.008 µM,1.04
same,viability,[2]; 0.04 µM,1.04
same,viability,[2]; 0.2 µM,1.04
same,viability,[2]; 1 µM,1.02
same,viability,[2]; 5 µM,1.16
same,viability,[3]; 0.008 µM,1.08
same,viability,[3]; 0.04 µM,1.1
same,viability,[3]; 0.2 µM,1.09
same,viability,[3]; 1 µM,1.08
same,viability,[3]; 5 µM,1.04
same,viability,[4]; 0.008 µM,0.895
same,viability,[4]; 0.04 µM,0.945
same,viability,[4]; 0.2 µM,0.911
same,viability,[4]; 1 µM,1.07
same,viability,[4]; 5 µM,1.04
same,viability,[5]; 0.008 µM,1.03
same,viability,[5]; 0.04 µM,1.02
same,viability,[5]; 0.2 µM,1.01
same,viability,[5]; 1 µM,0.864
same,viability,[5]; 5 µM,1.01
same,viability,[6]; 0.008 µM,1.08
same,viability,[6]; 0.04 µM,1.16
same,viability,[6]; 0.2 µM,1.14
same,viability,[6]; 1 µM,1.16
same,viability,[6]; 5 µM,1.21
same,viability,[7]; 0.008 µM,1.09
same,viability,[7]; 0.04 µM,1.2
same,viability,[7]; 0.2 µM,1.08
same,viability,[7]; 1 µM,1.12
same,viability,[7]; 5 µM,1.06
same,viability,[8]; 0.008 µM,1.04
same,viability,[8]; 0.04 µM,1.55
same,viability,[8]; 0.2 µM,1.02
same,viability,[8]; 1 µM,0.929
same,viability,[8]; 5 µM,0.766
same,viability,[9]; 0.008 µM,0.948
same,viability,[9]; 0.04 µM,0.906
same,viability,[9]; 0.2 µM,0.859
same,viability,[9]; 1 µM,1.11
same,viability,[9]; 5 µM,0.965
same,viability,[10]; 0.008 µM,1.05
same,viability,[10]; 0.04 µM,1.14
same,viability,[10]; 0.2 µM,1.01
same,viability,[10]; 1 µM,0.989
same,viability,[10]; 5 µM,1.02
same,viability,[11]; 0.008 µM,0.877
same,viability,[11]; 0.04 µM,0.817
same,viability,[11]; 0.2 µM,0.742
same,viability,[11]; 1 µM,0.722
same,viability,[11]; 5 µM,0.713
same,viability,[12]; 0.008 µM,0.892
same,viability,[12]; 0.04 µM,0.758
same,viability,[12]; 0.2 µM,0.693
same,viability,[12]; 1 µM,0.74
same,viability,[12]; 5 µM,0.704
same,viability,[13]; 0.008 µM,1.08
same,viability,[13]; 0.04 µM,1.14
same,viability,[13]; 0.2 µM,1.11
same,viability,[13]; 1 µM,1.12
same,viability,[13]; 5 µM,1.06
same,viability,[14]; 0.008 µM,1.1
same,viability,[14]; 0.04 µM,1.12
same,viability,[14]; 0.2 µM,1.11
same,viability,[14]; 1 µM,1.09
same,viability,[14]; 5 µM,1.05
same,viability,[15]; 0.008 µM,1.08
same,viability,[15]; 0.04 µM,1.03
same,viability,[15]; 0.2 µM,1.07
same,viability,[15]; 1 µM,0.994
same,viability,[15]; 5 µM,1.04
same,viability,[16]; 0.008 µM,1
same,viability,[16]; 0.04 µM,1
same,viability,[16]; 0.2 µM,0.859
same,viability,[16]; 1 µM,0.899
same,viability,[16]; 5 µM,0.855
same,viability,[17]; 0.008 µM,0.697
same,viability,[17]; 0.04 µM,0.328
same,viability,[17]; 0.2 µM,0.276
same,viability,[17]; 1 µM,0.246
same,viability,[17]; 5 µM,0.262
same,viability,[18]; 0.008 µM,1.16
same,viability,[18]; 0.04 µM,1.21
same,viability,[18]; 0.2 µM,1.14
same,viability,[18]; 1 µM,1.25
same,viability,[18]; 5 µM,1.06
